Measured values published in patent US5529918A, “Process for preparing neuraminidase” (Fidia S.p.A., priority 1991, dated 1996).

System: neuraminidase from Arthrobacter Sp. (Arthrobacter ureafaciens VR-1, NCIMB 40717), purified, molecular weight 55,000-60,000
Assay: Neuraminidase enzymatic activity and inhibition (thiobarbituric acid method, released NANA)
Type: biochemical
Conditions: inhibition of the neuraminidase by NANA; GDia as substrate in the activity test
Procedure: The enzymatic activity of the neuraminidase is determined at the saturation levels of the substrate concentration, corresponding to 5 times the Km value.
The released product is measured by employing the colorimetric technique (thiobarbituric acid method). For instance, when the neuraminidase enzyme and its substrate (a ganglioside like GDia) are incubated for 5-10 minutes and the NANA, hydrolyzed from the substrate, is employed for evaluating the enzymatic activity, the NANA released in the solution undergoes a series of reactions, in order to determine its actual amount.
Since NANA is also employed for obtaining the culture media of the steady state wherefrom the filtrate is extracted, a few check reactions are carried out, in order to ascertain that the measured NANA be the one coming from the reaction between enzyme and substrate and not the one coming as a residue from the original culture.
For instance, a few tests are carried out on 3 test-tubes, as reported hereinbelow. […]
In the first test-tube (S) there should be no NANA. Should NANA be retrieved in the second test-tube (B), its spectrophotometric reading is subtracted from the reading obtained from the reaction in test-tube three (E). The enzyme activity is therefore indirectly measured as the amount of hydrolized NANA per minute at pH 5.3 and at 37° C., using GDia as the substrate. […]

## CC(=O)N[C@H]1[C@H]([C@H](O)[C@H](O)CO)OC(O)(C(=O)O)C[C@@H]1O (stereo partly shown) [NANA, N-acetyl-neuraminic acid]
  Ki: ~300 µM
